“Also recorded” adds a separate entry of the source.
System: fibrotic phase associated RNA (TGF-β, TLR4, TLR7), bromodomain transcripts
Assay: RT-PCR of irradiation induced gene transcripts in lung
Type: in vivo, mouse
Settings: 20 Gy thoracic irradiation, MMS350 in drinking water
Method: To isolate different cellular compartments of the lung, mice were sacrificed and the pulmonary cavity was opened, and lungs perfused by injecting 5 ml of phosphate-buffered saline (PBS) into the right ventricle of the heart. To isolate pulmonary endothelial cells, the lungs were filled with 1 ml of dispase (39.65 mg/ml), allowed to collapse, and then expanded with 0.5 ml of a 1% low-melt agarose, which had been stored at 45° C. in a water bath. The lungs were immediately covered with ice and incubated for 2 minutes. […] The cells were analyzed by flow cytometry with PECAM+ endothelial cells and PECAM− and CD45− cells alveolar cells isolated.
RNA was extracted from mouse lung or purified cell populations using the TRIzol reagent (Invitrogen, Carlsbad, Calif.) following the manufacturer's instructions, quantified using a spectrophotometer, and stored at −80° C. […]

## CC1(C[S+]([O-])CC2(C)COC2)COC1 [Compound 3, 3,3′-Sulfinylbis(methylene)bis(3-methyloxetane)]
  bromodomain transcripts: little effect on bromodomain transcripts
  expression of fibrosis phase mRNA: decreased expression of fibrosis phase mRNA expression; also recorded: downregulation of transcription of mRNA associated with the late pulmonary fibrotic reaction

From patent publication US10251860B2, “Compounds for bone healing” (University of Pittsburgh—Of the Commonwealth System of …, priority 2015, dated 2019)
